# Test results as given in ChEMBL document CHEMBL1201862, “PubChem BioAssay data set” (2004).
# Activity calls are given as the source filed them.
# Experiments:
# [1] = target: Photoreceptor-specific nuclear receptor (Homo sapiens, UniProt Q9Y5X4); assay type: functional;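 also: potency for compounds that break the NR2E3 corepressor complex and count as activators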
# Streptokinase A = target: T1, Streptokinase A (Streptococcus pyogenes serotype M1, UniProt P10520); test: S. pyogenes streptokinase expression inhibitors, potency, dose response, plasminogen activation absorbance, OD405 (AID 1914); assay type: functional, Streptococcus pyogenes M1 GAS;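 also: secreted streptokinase activity via plasminogen activation per viability signal from cell pellet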
# T1 sequence (P10520 whole entry): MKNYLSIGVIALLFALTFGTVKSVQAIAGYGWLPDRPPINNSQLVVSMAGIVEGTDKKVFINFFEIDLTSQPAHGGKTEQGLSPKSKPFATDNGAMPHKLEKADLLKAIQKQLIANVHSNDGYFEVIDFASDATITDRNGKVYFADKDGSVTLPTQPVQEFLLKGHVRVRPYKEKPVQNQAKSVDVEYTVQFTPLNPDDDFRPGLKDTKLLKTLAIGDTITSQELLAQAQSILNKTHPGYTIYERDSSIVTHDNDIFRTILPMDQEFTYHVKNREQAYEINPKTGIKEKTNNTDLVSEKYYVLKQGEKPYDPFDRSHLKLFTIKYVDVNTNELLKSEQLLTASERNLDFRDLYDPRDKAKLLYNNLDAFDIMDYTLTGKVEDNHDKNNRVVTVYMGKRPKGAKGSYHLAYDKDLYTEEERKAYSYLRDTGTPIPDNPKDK
# [2] = target: Peroxisome proliferator-activated receptor gamma/Nuclear receptor corepressor 2 (Homo sapiens, UniProt P37231+Q9Y618); assay type: functional
# [3] = target: T2, Heat shock factor protein 1 (Mus musculus, UniProt P38532); test: HSF1 potentiators in luciferase reporter cells, confirmation, cell-based, NIH3T3, luminescence, dose retest (AID 435004); assay type: functional;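 also: stress induced by proteasome inhibitor MG132 added 30 min after compound; luciferase reporter driven by HSF1 response element in NIH3T3 cells; actives raise luminescence as potentiators of the MG132 stress response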
# T2 sequence (P38532 whole entry): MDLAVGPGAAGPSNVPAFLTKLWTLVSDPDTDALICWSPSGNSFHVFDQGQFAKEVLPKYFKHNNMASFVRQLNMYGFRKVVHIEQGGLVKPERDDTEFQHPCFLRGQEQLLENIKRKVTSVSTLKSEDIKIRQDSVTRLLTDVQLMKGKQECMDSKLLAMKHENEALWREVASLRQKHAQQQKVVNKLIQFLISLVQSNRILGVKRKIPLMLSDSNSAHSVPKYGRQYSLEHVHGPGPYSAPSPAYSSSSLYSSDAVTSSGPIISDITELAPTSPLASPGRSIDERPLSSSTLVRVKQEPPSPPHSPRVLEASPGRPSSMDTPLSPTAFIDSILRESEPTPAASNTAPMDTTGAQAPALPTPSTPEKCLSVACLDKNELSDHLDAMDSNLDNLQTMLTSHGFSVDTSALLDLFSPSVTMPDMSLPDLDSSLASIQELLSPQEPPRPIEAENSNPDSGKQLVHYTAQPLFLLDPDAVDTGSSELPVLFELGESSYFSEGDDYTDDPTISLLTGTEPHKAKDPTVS
# [4] = target: T3, Alkaline phosphatase, tissue-nonspecific isozyme (Homo sapiens, UniProt P05186)
# T3 sequence (P05186 whole entry): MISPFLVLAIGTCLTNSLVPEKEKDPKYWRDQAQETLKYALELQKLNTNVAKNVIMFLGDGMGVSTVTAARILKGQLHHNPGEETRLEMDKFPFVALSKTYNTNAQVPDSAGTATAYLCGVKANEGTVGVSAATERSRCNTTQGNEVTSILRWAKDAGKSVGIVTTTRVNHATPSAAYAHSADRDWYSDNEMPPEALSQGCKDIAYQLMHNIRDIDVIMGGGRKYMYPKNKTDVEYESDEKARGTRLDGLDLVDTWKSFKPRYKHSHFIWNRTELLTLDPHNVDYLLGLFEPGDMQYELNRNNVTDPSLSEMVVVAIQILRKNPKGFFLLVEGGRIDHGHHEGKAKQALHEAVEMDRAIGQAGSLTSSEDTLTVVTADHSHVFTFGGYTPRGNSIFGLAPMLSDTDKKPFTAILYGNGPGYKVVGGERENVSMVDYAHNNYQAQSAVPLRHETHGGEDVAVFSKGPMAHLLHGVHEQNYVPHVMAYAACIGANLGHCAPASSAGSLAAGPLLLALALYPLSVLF
# [5] = target: Peroxisome proliferator-activated receptor gamma/Nuclear receptor coactivator 1 (Homo sapiens, UniProt P37231); test: (§1) TR-FRET dose response biochemical High Throughput Screening assay for agonists of the steroid receptor coactivator 1 (SRC-1) recruitment by the peroxisome proliferator-activated receptor gamma (PPAR gamma): non-selective agonists. [Related pubchem assays (depositor defined):AID1300, AID1808, AID504735, AID631]; assay type: protein assay
# [6] = target: Peroxisome proliferator-activated receptor gamma/Nuclear receptor coactivator 3 (Homo sapiens, UniProt P37231); test: as §1, with “3 (SRC-3)” for “1 (SRC-1)”, “assays: 1301 (Confirmation screen.), 1048 (Primary screen.)]” for “assays (depositor defined):AID1300, AID1808, AID504735, AID631]”; assay type: functional
# [7] = target: Peroxisome proliferator-activated receptor gamma/Nuclear receptor coactivator 2 (Homo sapiens, UniProt P37231); test: TR-FRET dose response biochemical High Throughput Screening assay for agonists of the steroid receptor coactivator 2 (SRC-2) recruitment by the peroxisome proliferator-activated receptor gamma (PPAR gamma): non-selective agonists. [Related pubchem assays: 1297, 1032 ]; assay type: functional
# [8] = Luminescence Cell-Based Dose Response to Identify Activators of 5'UTR Stem-Loop Driven Prion Protein mRNA Translation in H4-C Neuroglioblastoma Cells. [Related pubchem assays: 1829 (Project Summary), 1814 (Primary HTS)]; assay type: functional
# [9] = Luminescence Cell-Based Dose Response HTS to Identify Activators of Luciferase Translation or Activity in H4 […] Cells. [Related pubchem assays: 1829 (Project Summary), 1814 (Primary HTS)]; assay type: functional
# H4 = test: Luminescence Cell-Based Dose Response HTS to Identify Activators of 5'UTR Stem-Loop Driven Prion Protein mRNA Translation in H4 Neuroglioblastoma Cells. [Related pubchem assays: 1829 (Project Summary), 1814 (Primary HTS)]; assay type: functional; settings: Homo sapiens
# [10] = Luminescence Cell-Based Dose Response to Identify Activators of Luciferase Translation or Activity in H4-C Neuroglioblastoma Cells. [Related pubchem assays: 1829 (Project Summary), 1814 (Primary HTS)]; assay type: functional
# [11] = Luminescence Cell-Based Dose Confirmation to Identify Activators of 5'UTR Stem-Loop Driven Alpha-Synuclein mRNA Translation in H4 Neuroglioblastoma Cells. [Related pubchem assays: 1829 (Project Summary), 1814 (Primary HTS)]; assay type: functional
# [12] = Luminescence Cell-Based Dose Retest to Confirm Inhibitors of Cancer Stem Cells. [Related pubchem assays (depositor defined):AID2717, AID2721]; assay type: functional; settings: Homo sapiens
# Cytochrome P450 2D6 = Cytochrome P450 2D6 (Homo sapiens, UniProt P10635);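 also: CYP2D6 member of a cytochrome P450 panel assay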
# Large T antigen = Large T antigen (Simian virus 40, UniProt P03070); assay type: functional, Betapolyomavirus macacae;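 also: Confirmatory-stage PubChem screen for compounds that inhibit SV40 T antigen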
# [13] = target: Glutathione-S-transferase (Schistosoma japonicum, UniProt Q26513); test: biotin-GST/anti-GST TR-FRET signal inhibitors, dose response, artefact control for Vif-APOBEC3G degradation inhibitor project, biochemical (AID 1117362); assay type: functional
# 14-3-3 protein gamma = 14-3-3 protein gamma (Homo sapiens, UniProt P61981); test: modulators of 14-3-3 gamma client binding – dose response (AID 711); assay type: functional
# [14] = inhibitors of Vif binding to APOBEC3G peptide, primary screen, biochemical, TR-FRET, GST-Vif 1-94, biotin-A3G peptide, dose response retest (AID 1117319); assay type: functional;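 also: TR-FRET signal of purified GST-Vif binding a biotinylated A3G peptide; inhibitors lower the FRET signal by blocking Vif and A3G binding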
# Ephrin type-A receptor 4 = Ephrin type-A receptor 4 (Mus musculus, UniProt Q03137); test: inhibitors of EphA4 binding to KYL peptide, primary screen, biochemical, colorimetric, mouse EphA4 (AID 689); assay type: functional
# [15] = target: Voltage-dependent T-type calcium channel subunit alpha-1H (Homo sapiens, UniProt O95180); assay type: functional;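 also: channel activity triggered by adding a high calcium stimulation buffer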
# [16] = tested on: Streptococcus sp. 'group A'; test: growth inhibition of control SK(-) GAS strain, dose response, counter-screen for streptokinase expression inhibitor project, luminescence, kanamycin, BacTiterGlo, confirmation (AID 1900); assay type: functional, organism-based
# Streptococcus = test: Group A Streptococcus viability loss, dose response, counter-screen for streptokinase expression inhibitor project, luminescence, BacTiterGlo (AID 1915); assay type: functional, organism-based;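 also: potency for reduction of bacterial viability or growth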
# [17] = target: T4, Endoribonuclease toxin MazF (Escherichia coli K-12, UniProt P0AE70); test: MazF toxin RNase activators, dose response, biochemical, fluorescence, single-stranded RNA substrate, uHTS hits (AID 588481); assay type: functional
# T4 sequence (P0AE70 whole entry): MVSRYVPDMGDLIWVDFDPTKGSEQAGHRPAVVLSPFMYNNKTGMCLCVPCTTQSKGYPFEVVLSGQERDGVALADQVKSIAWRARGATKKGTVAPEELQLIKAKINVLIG
# H9c2 = test: cells; assay type: functional, cell-based; settings: Rattus norvegicus, H9c2, Myocardium;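 also: confirmatory concentration-response retest of ultra-high-throughput screening hits for modulation of myocardial damage; cell death induced by hydrogen peroxide oxidative stress; compound pretreatment for 60 min then peroxide exposure for 2 h; potency is for protecting the cells against peroxide damage rather than for killing them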
# [18] = target: T4, Endoribonuclease toxin MazF; test: fluorescent RNA oligo signal without MazF, dose response, counter-screen for MazEF activator project, biochemical, fluorescence, single-stranded RNase substrate (AID 588502); assay type: functional
# [19] = target: Potassium voltage-gated channel subfamily KQT member 2 (Rattus norvegicus, UniProt O88943, W236L); test: KCNQ2 channel potentiators, dose response, mechanism study for KCNQ2 potentiator project, cell-based, automated electrophysiology (AID 2603); assay type: functional
# [20] = target: NAD-dependent protein deacylase sirtuin-5, mitochondrial (Homo sapiens, UniProt Q9NXA8); test: SIRT5 deacylase inhibitors, dose response, biochemical, fluorescence imaging, cherry-pick, set 6 (AID 720597)
# [21] = Concentration-dependent survival of SW480 colon cancer line, luminescence detection with CellTiter-Glo, half-maximal inhibitory concentration (AID 1117338); assay type: functional
# [22] = RKO cell viability reduction, dose response, CellTiter-Glo luminescence (AID 1117322); assay type: functional
# [23] = cytotoxicity toward HCT116 cells – cell-based, CellTiter-Glo luminescence, IC50, dose response (AID 1117332); assay type: functional; settings: HCT-116
# [24] = SNU-C1 cell viability reduction, dose response, CellTiter-Glo luminescence (AID 1117323); assay type: functional, cell-based
# [25] = cytotoxicity toward Colo320 cells – cell-based, CellTiter-Glo luminescence, IC50, dose response (AID 1117334); assay type: functional; settings: COLO 320
# [26] = cytotoxicity toward HT-29 cells – cell-based, CellTiter-Glo luminescence, IC50, dose response (AID 1117330); assay type: functional
# [27] = CellTiter-Glo luminescent dose response of DLD-1 viability loss (AID 1117352); assay type: functional
# [28] = HCT116 cell viability decrease, GSK3B pretreatment – CellTiter-Glo, IC50, dose response (AID 1117339); assay type: functional; settings: HCT-116
# Ephrin type-A receptor 4, sequence (Q03137 whole entry): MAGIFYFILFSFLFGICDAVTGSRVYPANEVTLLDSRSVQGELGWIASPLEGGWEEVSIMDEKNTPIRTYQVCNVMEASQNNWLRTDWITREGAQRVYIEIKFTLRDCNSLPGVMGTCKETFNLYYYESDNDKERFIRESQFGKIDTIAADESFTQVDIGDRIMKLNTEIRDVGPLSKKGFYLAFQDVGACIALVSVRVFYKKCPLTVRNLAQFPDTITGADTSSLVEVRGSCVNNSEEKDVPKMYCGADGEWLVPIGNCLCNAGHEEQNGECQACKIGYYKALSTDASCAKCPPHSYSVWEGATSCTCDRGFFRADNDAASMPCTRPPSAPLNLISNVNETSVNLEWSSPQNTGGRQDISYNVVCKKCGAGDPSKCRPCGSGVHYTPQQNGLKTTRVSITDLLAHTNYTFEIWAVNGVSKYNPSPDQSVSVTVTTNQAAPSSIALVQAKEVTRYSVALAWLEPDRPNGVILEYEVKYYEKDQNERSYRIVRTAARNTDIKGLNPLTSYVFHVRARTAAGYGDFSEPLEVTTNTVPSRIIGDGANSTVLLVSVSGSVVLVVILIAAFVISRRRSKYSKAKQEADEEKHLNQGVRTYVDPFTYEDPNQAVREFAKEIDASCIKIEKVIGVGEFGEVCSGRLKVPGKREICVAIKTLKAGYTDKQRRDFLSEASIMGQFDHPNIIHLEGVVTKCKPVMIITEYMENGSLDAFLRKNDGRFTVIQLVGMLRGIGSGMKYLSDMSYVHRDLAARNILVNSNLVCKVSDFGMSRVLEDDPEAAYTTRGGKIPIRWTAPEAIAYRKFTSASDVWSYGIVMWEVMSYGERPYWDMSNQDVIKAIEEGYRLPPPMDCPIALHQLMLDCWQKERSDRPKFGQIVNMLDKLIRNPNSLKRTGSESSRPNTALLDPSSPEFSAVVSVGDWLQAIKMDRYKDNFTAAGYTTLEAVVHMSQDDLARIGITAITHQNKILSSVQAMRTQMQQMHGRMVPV
# Glutathione-S-transferase, sequence (Q26513 whole entry): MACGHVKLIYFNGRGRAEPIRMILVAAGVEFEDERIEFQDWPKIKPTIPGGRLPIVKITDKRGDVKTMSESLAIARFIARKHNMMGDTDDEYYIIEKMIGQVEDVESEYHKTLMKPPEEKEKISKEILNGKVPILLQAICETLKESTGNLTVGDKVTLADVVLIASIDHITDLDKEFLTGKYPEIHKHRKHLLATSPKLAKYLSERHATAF
# Peroxisome proliferator-activated receptor gamma/Nuclear receptor corepressor 2, sequence (P37231 whole entry): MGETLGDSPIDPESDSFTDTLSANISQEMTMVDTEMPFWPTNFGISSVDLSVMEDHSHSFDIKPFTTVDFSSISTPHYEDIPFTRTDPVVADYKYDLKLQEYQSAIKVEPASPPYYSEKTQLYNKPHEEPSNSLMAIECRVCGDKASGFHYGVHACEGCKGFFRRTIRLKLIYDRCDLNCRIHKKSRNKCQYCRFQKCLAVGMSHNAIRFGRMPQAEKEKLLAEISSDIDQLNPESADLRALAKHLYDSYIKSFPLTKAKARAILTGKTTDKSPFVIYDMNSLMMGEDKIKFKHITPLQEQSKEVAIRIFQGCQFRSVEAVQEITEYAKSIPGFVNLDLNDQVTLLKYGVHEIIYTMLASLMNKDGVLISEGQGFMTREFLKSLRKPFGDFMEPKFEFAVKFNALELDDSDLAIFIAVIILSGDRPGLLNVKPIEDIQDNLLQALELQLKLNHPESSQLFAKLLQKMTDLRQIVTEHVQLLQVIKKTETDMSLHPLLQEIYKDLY
# Peroxisome proliferator-activated receptor gamma/Nuclear receptor corepressor 2, sequence (Q9Y618 whole entry): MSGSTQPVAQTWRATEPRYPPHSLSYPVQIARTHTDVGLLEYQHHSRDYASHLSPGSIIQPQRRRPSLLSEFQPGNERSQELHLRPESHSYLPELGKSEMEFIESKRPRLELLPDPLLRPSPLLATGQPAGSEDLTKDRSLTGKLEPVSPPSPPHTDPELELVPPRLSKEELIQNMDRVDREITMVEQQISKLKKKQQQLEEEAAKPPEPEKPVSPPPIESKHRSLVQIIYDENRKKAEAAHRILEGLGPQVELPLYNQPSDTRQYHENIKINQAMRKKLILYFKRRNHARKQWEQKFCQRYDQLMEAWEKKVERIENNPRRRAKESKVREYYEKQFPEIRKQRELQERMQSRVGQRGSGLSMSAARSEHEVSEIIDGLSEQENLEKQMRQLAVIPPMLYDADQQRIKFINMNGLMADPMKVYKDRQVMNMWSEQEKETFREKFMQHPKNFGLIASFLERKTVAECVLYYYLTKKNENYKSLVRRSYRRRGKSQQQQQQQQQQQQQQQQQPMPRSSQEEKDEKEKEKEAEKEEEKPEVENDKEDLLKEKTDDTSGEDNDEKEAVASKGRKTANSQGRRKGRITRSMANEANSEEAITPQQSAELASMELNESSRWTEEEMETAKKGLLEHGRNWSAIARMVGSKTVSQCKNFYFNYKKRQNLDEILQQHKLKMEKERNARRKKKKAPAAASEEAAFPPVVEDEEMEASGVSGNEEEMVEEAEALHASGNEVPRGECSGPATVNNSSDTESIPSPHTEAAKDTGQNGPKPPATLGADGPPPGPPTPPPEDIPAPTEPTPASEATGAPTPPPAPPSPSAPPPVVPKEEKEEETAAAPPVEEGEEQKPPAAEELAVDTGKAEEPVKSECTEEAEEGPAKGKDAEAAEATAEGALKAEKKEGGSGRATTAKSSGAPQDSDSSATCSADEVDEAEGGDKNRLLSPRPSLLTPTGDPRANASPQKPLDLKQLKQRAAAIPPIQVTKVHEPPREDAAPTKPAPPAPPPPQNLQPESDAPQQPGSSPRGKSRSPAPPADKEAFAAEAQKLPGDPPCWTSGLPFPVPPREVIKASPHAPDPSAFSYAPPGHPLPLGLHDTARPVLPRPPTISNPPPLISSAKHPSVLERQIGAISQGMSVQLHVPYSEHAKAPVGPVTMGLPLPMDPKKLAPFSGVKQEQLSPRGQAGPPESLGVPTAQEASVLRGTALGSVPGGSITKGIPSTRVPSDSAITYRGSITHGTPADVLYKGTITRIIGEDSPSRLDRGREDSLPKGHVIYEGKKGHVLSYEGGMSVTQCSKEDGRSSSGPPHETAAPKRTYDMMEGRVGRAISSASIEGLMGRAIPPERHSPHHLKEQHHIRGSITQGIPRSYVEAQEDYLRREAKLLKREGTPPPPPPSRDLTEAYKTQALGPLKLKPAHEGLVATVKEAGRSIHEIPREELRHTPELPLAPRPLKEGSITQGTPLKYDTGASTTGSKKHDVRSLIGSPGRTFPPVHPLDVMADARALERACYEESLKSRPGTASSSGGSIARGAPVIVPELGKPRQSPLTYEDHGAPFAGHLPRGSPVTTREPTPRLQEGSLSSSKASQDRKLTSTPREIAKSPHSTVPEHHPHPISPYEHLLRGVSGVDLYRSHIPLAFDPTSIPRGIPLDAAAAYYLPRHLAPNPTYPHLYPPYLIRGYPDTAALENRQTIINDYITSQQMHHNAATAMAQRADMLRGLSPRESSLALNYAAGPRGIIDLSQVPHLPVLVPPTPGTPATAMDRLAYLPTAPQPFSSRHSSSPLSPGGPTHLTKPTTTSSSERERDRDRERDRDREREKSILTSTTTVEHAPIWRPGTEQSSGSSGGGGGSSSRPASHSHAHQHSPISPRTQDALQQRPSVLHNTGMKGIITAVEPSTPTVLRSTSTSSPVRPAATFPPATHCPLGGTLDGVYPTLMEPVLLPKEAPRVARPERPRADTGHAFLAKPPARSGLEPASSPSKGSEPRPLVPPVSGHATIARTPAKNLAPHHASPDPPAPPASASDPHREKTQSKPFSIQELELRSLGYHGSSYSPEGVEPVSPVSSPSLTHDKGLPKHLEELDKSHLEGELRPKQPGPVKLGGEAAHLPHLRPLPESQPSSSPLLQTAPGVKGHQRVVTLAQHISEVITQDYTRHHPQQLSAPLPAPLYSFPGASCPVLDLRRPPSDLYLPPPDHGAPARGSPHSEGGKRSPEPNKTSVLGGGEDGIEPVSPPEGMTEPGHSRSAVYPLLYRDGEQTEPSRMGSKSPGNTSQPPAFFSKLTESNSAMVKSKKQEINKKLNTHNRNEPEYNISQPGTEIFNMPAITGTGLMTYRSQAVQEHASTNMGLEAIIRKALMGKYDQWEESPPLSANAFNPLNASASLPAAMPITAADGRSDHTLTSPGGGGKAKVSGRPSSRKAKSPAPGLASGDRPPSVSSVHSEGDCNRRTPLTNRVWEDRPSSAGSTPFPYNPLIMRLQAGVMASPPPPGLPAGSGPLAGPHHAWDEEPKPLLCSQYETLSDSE
# Photoreceptor-specific nuclear receptor, sequence (Q9Y5X4 whole entry): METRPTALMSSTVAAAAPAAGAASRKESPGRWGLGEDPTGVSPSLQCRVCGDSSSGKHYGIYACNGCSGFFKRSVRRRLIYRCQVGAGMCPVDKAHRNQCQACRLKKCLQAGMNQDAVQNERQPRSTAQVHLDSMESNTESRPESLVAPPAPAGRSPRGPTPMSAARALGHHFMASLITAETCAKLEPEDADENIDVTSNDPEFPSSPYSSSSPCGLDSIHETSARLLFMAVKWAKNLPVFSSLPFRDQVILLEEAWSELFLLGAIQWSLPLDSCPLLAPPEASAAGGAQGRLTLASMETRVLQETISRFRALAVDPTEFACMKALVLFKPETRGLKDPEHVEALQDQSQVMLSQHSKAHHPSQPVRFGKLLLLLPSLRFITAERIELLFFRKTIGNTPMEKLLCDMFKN
# NAD-dependent protein deacylase sirtuin-5, mitochondrial, sequence (Q9NXA8 whole entry): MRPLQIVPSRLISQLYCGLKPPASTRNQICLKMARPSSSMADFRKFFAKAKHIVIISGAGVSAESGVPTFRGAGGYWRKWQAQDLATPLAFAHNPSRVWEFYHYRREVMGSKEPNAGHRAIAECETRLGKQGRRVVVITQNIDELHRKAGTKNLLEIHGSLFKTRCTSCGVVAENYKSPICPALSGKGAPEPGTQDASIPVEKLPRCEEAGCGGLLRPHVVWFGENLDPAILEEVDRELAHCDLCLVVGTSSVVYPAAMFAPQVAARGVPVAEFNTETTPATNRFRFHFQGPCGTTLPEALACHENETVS
structure (smiles),measurement,setting,value
S=c1[nH]c(SCc2ccccc2)nc2ccccc12,IC50,[1],> 39.8 µM (not active)
same,EC50,Streptokinase A,> 150 µM (not active)
same,IC50,[2],2.48 µM (active)
same,EC50,[3],227 µM (active)
COc1ccc(NC(=O)CSc2nc3ccccc3c3nc4ccccc4n23)cc1,EC50,[4],> 100 µM (not active)
O=C(CSc1ncnc2c1oc1ccccc12)c1cccs1,IC50,[1],> 39.8 µM (not active)
same,EC50,[5],> 26.5 µM (inactive)
same,EC50,[6],> 79.4 µM (not active)
same,EC50,[7],> 8.82 µM (not active)
same,IC50,[2],15.3 µM (not active)
Cc1sc(NC(=O)C2CCCCC2)c(C#N)c1-c1ccccc1,EC50,[8],689 nM (active)
same,EC50,[9],< 100 nM (active)
same,EC50,H4,7.76 µM (active)
same,EC50,[10],375 nM (active)
same,EC50,[11],174 nM (active)
same,AC50,[12],3.43 µM (active)
same,AC50,Cytochrome P450 2D6,7.08 µM (inconclusive)
Nc1ccc(-c2nc3cc(N)ccc3n2CCO)cc1,IC50,Large T antigen,41.7 µM (active)
same,IC50,[13],> 100 µM (active)
CN(C)S(=O)(=O)CC12CCC(CC1=O)C2(C)C (stereo unspecified),IC50,14-3-3 protein gamma,> 50 µM (not active)
CCN(CC)C(=O)c1ccc(CS(=O)(=O)c2ccc(OC)cc2)o1,IC50,[14],> 100 µM (active)
COc1ccc(C(c2nnnn2Cc2cccs2)N2CCN(c3ccccc3F)CC2)cc1 (stereo unspecified),IC50,Ephrin type-A receptor 4,> 100 µM (not active)
same,EC50,[15],18 µM (active)
C=CCn1c(C)cc(-c2csc(N)n2)c1C,IC50,[13],28.2 µM (active)
CC(C(=O)N1CCOCC1)(c1ccccc1)c1ccccc1,IC50,[14],> 100 µM (active)
CCn1c(O)c(/C=N/N=C/c2ccccc2)c2ccc(C3=NNC(=O)CC3)cc21,EC50,[16],6.42 µM (active)
same,EC50,Streptokinase A,> 150 µM (not active)
same,IC50,Ephrin type-A receptor 4,> 100 µM (not active)
same,EC50,Streptococcus,10.5 µM (active)
same,EC50,[17],> 99 µM (inactive)
same,IC50,H9c2,> 79 µM (inactive)
same,EC50,[18],> 99 µM (inactive)
C#CCn1/c(=N/C(=O)CSC(C)=O)sc2cc(F)ccc21,EC50,[19],2.97 µM (active)
CC(C)CC#Cc1ccc([C@@H]2[C@@H](CO)N3C(=O)CN(C(=O)c4ccccn4)C[C@H]23)cc1,AC50,[20],19.7 µM (active)
Oc1c(Cl)cc(Cl)cc1/C=N/c1nccs1,EC50,[19],11.6 µM (active)
CCOC(=O)C=C(C)C=CC[C@@H](C)CCCC(C)C,IC50,[21],> 20 µM (inactive)
same,IC50,[22],> 20 µM (inactive)
same,IC50,[23],> 20 µM (inactive)
same,IC50,[24],> 20 µM (inactive)
same,IC50,[25],> 20 µM (inactive)
same,IC50,[26],> 20 µM (inactive)
same,IC50,[27],> 20 µM (inactive)
same,IC50,[28],> 20 µM (inactive)
O=[N+]([O-])c1cccc(S(=O)(=O)NCCNS(=O)(=O)c2cccc([N+](=O)[O-])c2)c1 [DINSED],IC50,[21],> 20 µM (inactive)
same,IC50,[22],> 20 µM (inactive)
same,IC50,[23],> 20 µM (inactive)
same,IC50,[24],> 20 µM (inactive)
same,IC50,[25],> 20 µM (inactive)
same,IC50,[26],> 20 µM (inactive)
same,IC50,[27],> 20 µM (inactive)
same,IC50,[28],> 20 µM (inactive)
